Source: BindingDB's records for doi:10.1021/jm070336k (University of Mississippi, 2007)

Each compound was assayed against L-lactate dehydrogenase B chain (Bos taurus, UniProt Q5E9B1) (assay: Lactate Dehydrogenase Inhibition Assay). Settings: pH 7; 25 °C.
L-lactate dehydrogenase B chain, sequence (Q5E9B1 whole entry): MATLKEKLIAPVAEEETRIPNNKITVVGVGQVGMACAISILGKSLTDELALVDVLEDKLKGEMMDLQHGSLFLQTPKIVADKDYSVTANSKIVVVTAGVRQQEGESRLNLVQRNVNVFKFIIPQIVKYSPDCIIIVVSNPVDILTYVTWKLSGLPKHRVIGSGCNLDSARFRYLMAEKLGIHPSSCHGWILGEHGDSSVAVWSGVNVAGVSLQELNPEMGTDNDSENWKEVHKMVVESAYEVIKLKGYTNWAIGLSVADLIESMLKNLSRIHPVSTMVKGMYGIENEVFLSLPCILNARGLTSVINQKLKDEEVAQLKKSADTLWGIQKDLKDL
For `COc1ccc(CNC(=O)c2cc(=O)c3c(O)cc(OCCc4ccc(NC(=O)C(=O)O)cc4)cc3o2)cc1` [[(4-{2-[(5-hydroxy-2-{[(4-methoxyphenyl)methyl]carbamoyl}-4-oxo-4H-chromen-7-yl)oxy]ethyl}phenyl)carbamoyl]formic acid], the IC50 was over 187 µM. `COc1cc(CCOc2cc(O)c3c(=O)cc(C(=O)O)oc3c2)ccc1NC(=O)C(=O)O` [7-{2-[4-(formamidoformic acid)-3-methoxyphenyl]ethoxy}-5-hydroxy-4-oxo-4H-chromene-2-carboxylic acid] showed an IC50 of over 225 µM. `O=C(O)C(=O)Nc1ccc(CCOc2cc(O)c3c(=O)cc(C(=O)O)oc3c2)cc1` [7-{2-[4-(formamidoformic acid)phenyl]ethoxy}-5-hydroxy-4-oxo-4H-chromene-2-carboxylic acid] gave an IC50 of over 241 µM. Work on `COc1ccc(CNC(=O)c2cc(=O)c3c(O)cc(OCCc4ccc(NC(=O)C(=O)O)c(C#N)c4)cc3o2)cc1` [[(2-cyano-4-{2-[(5-hydroxy-2-{[(4-methoxyphenyl)methyl]carbamoyl}-4-oxo-4H-chromen-7-yl)oxy]ethyl}phenyl)carbamoyl]formic acid] yielded an IC50 of over 179 µM. Compound `COc1cc(COc2cc(O)c3c(=O)cc(C(=O)O)oc3c2)ccc1NC(=O)C(=O)O` [7-{[4-(formamidoformic acid)-3-methoxyphenyl]methoxy}-5-hydroxy-4-oxo-4H-chromene-2-carboxylic acid] has an IC50 of over 232 µM.

Each compound was assayed against L-lactate dehydrogenase (Plasmodium falciparum (isolate CDC / Honduras), UniProt Q27743) (assay: Lactate Dehydrogenase Inhibition Assay). Settings: pH 7; 25 °C.
L-lactate dehydrogenase, sequence (Q27743 whole entry): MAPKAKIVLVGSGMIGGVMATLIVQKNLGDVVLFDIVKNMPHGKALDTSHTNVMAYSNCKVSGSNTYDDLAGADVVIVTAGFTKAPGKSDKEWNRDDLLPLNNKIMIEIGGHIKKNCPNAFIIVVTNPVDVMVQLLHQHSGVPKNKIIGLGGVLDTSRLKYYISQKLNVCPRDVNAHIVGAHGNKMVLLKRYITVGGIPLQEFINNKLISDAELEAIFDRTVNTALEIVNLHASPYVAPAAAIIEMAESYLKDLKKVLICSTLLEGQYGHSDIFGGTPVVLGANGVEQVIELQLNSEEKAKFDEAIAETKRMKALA
`O=C(O)C(=O)Nc1ccc(CCOc2cc(O)c3c(=O)cc(C(=O)O)oc3c2)cc1` [7-{2-[4-(formamidoformic acid)phenyl]ethoxy}-5-hydroxy-4-oxo-4H-chromene-2-carboxylic acid] showed an IC50 of over 241 µM.
